23 compounds from PubChem BioAssay (NCI) can be followed below.

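How tested: cells in 96-well plates exposed to compound for 48 hours at five concentrations. The concentration for 50% growth inhibition is given as GI50. TGI: concentration producing complete growth inhibition.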

Test in all cases: NCI anticancer screen, dose series, 48 h
Test [1] deals with HOP-62 NSCLC.
Test [2] has as its system UACC-62 melanoma.
The test system of test [3] is HT29 colon.
Test [4] concerns NCI-H460 lung.
The test system of test [5] is HL-60(TB) leukemia.
In test [6] the test system is MALME-3M melanoma.
Test [7] has as its system UO-31 renal.
The test system of test [8] is KM12 colon.
Test [9] deals with NCI-H522 lung.
Test [10] relates to SNB-75 CNS.

With `COC(=O)C12C3C4C1C1C2C3C41I` (stereo unspecified), the TGI in test [1], in test [2], in test [3], in test [4], in test [5] and in test [6] was over 100 µM throughout. This compound also returned a TGI in test [7] of over 100 µM.
`O=C(N/N=C/c1ccc(F)cc1)c1[nH]c2ccc(I)cc2c1-c1ccccc1`: the GI50 in [8] was 0.385 µM; in test [9], 0.257 µM; in test [1] it was 0.577 µM; in [10], 0.327 µM; in test [2], 0.324 µM; in test [3], 0.35 µM. The GI50 in test [4] was 0.399 µM; in test [5], 0.259 µM; in test [7] it was 1.98 µM. Moreover, the TGI in test [8] is 2.11 µM; in test [9] it was 1.74 µM; in [1], 13.6 µM; in test [10], 39.3 µM; in test [2], over 100 µM; in [3], 10 µM. Besides, the TGI was 5.04 µM in [4], 0.824 µM in test [5] and 52.6 µM in [7].
As for `Cc1ccc(N2C(=O)C(Cl)=C(Nc3cccc(O)c3)C2=O)cc1Cl`, the GI50 in test [8] was 17 µM; in [9] it was 31.8 µM; in test [1], 17.7 µM; in [2] it was 17 µM; in [4] it was 11.6 µM; in [6], 17.2 µM. Also, in test [7], the GI50 was 26.1 µM. The TGI in test [8] is 31.6 µM; in test [9], over 100 µM; in [1], 36.3 µM; in test [2], 32.6 µM; in test [4], 26.7 µM; in [6], 31.4 µM. Moreover, in [7], the TGI came to 75.8 µM.
Regarding `O=C(Nc1ccc(Br)cc1)c1cc(Br)cc(Br)c1O`, the GI50 was 2.59 µM in test [8]; 2.23 µM in test [9]; 2.45 µM in test [1]; 2.16 µM in test [10]; 2.56 µM in test [2]; 4.02 µM in test [3]. Moreover, the results for the GI50 in [4], in [6] and in [7] were 2.6 µM, 2.15 µM and 3.1 µM, respectively. Also, the TGI in [8] was 8.09 µM; in test [9], 7.7 µM; in test [1] it was 6.5 µM; in test [10], 7.11 µM; in test [2], 15 µM; in test [3], 22.7 µM. For the same compound, the values for the TGI in test [4], in test [6] and in [7] were 6.86 µM, 5.63 µM and 11.5 µM, respectively.
Regarding `CCOC(=O)C(=O)Nc1c(C)cccc1CC`, the TGI in [8], in test [9], in [1], in test [2], in test [3] and in [4] was over 100 µM each time. The TGI in [5], in test [6] and in test [7] was over 100 µM throughout.
As for `C=C1C(O)C2C(=C(CC(C)C)C13CC3)C(=O)C(C)(C)C2OC` (stereo unspecified), the GI50 in [8], in test [9], in test [1], in test [2], in test [3] and in [4] was over 100 µM each time. For the same compound, the GI50 in test [6] and in test [7] was over 100 µM in each case. Moreover, the TGI in test [8], in test [9], in [1], in test [2], in test [3] and in test [4] was over 100 µM each time. Besides, the TGI in test [6] and in test [7] was over 100 µM each time.
In the case of `O=C(O)c1nnsc1COCc1ccccc1`, the TGI in test [8], in [9], in test [1], in test [10], in test [2] and in [3] was over 100 µM throughout. Moreover, the TGI in [4], in test [6] and in test [7] was over 100 µM throughout.
As for `O=C1/C(=C\c2cccs2)Oc2ccccc21`, the TGI in test [8], in [9], in [1], in test [10], in [2] and in [3] was over 100 µM throughout. In addition, the TGI is over 100 µM in test [4], over 100 µM in test [5] and 83.3 µM in test [7].
Consider `CN(C)CN1C(=O)S/C(=C2\C(=O)N(CN(C)C)c3ccccc32)C1=O`, for which the TGI in test [8] was over 100 µM; in test [9], over 100 µM; in test [1], over 100 µM; in test [10] it was 74.5 µM; in test [2], over 100 µM; in test [3] it was over 100 µM. Besides, the TGI in test [4] is over 100 µM; in test [5], 37.2 µM; in test [7], 91.8 µM.
With `c1cncc(C2c3[nH]c4ccccc4c3CCN2CCN2CCCCC2)c1` (stereo unspecified), the TGI in test [8], in [9], in test [1], in test [10], in test [2] and in [3] was over 100 µM in each case. The TGI in [4], in test [5] and in test [7] was over 100 µM throughout.
Take `CC/C=C\C[C@H](O)C/C=C1/C(=O)C=C[C@@H]1C/C=C\CCCC(N)=O`: the GI50 in test [8] was 1.68 µM; in test [9] it was 1.3 µM; in [1] it was 2.99 µM; in test [10], 10.5 µM; in test [2] it was 1.36 µM; in test [3], 1.89 µM. Also, the GI50 is 2.27 µM in [4], 2.06 µM in test [6] and 1.63 µM in test [7]. The TGI in test [8] was found to be 4.21 µM; in test [9], 2.67 µM; in [1], 7.77 µM; in test [10], 22.3 µM; in [2], 3.36 µM; in [3], 3.7 µM. The TGI was determined as 6.97 µM in test [4], 5.23 µM in [6] and 3.42 µM in test [7].
On to `C=C1C(=O)O[C@H]2[C@H]1CC/C(COC(=O)c1ccc(C(=O)O)s1)=C\CC[C@@]1(C)O[C@@H]21`, for which the GI50 was 2.82 µM in test [8]; 1.93 µM in [9]; 6.96 µM in test [1]; 1.65 µM in test [2]; 1.56 µM in [3]; 3.33 µM in test [4]. For the same compound, the GI50 was 2.44 µM in test [6] and 1.4 µM in test [7]. The TGI in test [8] was 8.46 µM; in [9], 3.87 µM; in [1], 20.2 µM; in test [2] it was 3.23 µM; in test [3], 3.5 µM; in [4], 10.8 µM. In addition, the TGI in test [6] amounted to 4.25 µM; in test [7], 3.04 µM.
Regarding `NC(N)=N/N=C/c1c(-c2cc(Cl)sc2Cl)nc2n1CCS2`, the GI50 in test [8] is 8.33 µM; in test [9] it was 20.4 µM; in [1], 8.87 µM; in [2] it was 8.62 µM; in test [4] it was 25.5 µM; in test [7], 17.3 µM. For the same compound, the TGI in [8] is 16.1 µM; in [9], over 50 µM; in test [1], 15.8 µM; in test [2], 16 µM; in [4], over 50 µM; in [7], over 50 µM.
On to `CCCN(CCCCC(NC(C)=O)C(=O)NCc1ccccc1)C(=O)NC` (stereo unspecified), for which the TGI in test [8], in test [9], in test [1], in test [10], in test [2] and in [3] was over 100 µM in each case. The TGI in test [4], in [6] and in [7] was over 100 µM throughout.
In the case of `Cn1c(=O)c2c(nc3n2CCC(=O)N3)n(C)c1=O`, the TGI in test [8], in [9], in test [1], in test [2], in test [3] and in [4] was over 100 µM throughout. In addition, the TGI in [5], in test [6] and in test [7] was over 100 µM each time.
As for `O=C1OCC2=Nc3cccc4cccc(c34)N12`, the TGI in test [8], in [9], in test [1], in [10], in [2] and in test [3] was over 100 µM throughout. Further, the TGI in test [4], in test [5] and in test [7] was over 100 µM throughout.
As to `COc1cc2ccc3c4cc(OC)c(OCc5ccccc5)cc4cnc3c2cc1OC`, the TGI in [8], in test [9], in [1], in test [10], in [2] and in [3] was over 100 µM in each case. In addition, the TGI in test [4], in [6] and in test [7] was over 100 µM in each case.
Turning to `CC1=CC[C@@H]2C(C)(C)[C@@H](O)CC[C@@]2(C)[C@@H]1COc1ccc2ccc(=O)oc2c1`, the GI50 in [8] is 4.18 µM; in test [9], 3.81 µM; in test [1] it was 6.84 µM; in test [2], 3.52 µM; in test [3], 9.83 µM; in [4] it was 7.68 µM. Moreover, the figures for the GI50 in [5], in test [6] and in test [7] were 3.27 µM, 8.04 µM and 2.99 µM, respectively. The TGI was found to be 15.7 µM in [8]; 22.1 µM in test [9]; 26.1 µM in test [1]; 14.5 µM in [2]; 44.6 µM in [3]; 25.7 µM in test [4]. In addition, the figures for the TGI in test [5], in test [6] and in test [7] were 14 µM, 22.4 µM and 13.1 µM, respectively.
On to `CCCN(CCC)c1c([N+](=O)[O-])cc(S(N)(=O)=O)cc1[N+](=O)[O-]`, for which the TGI is 34.3 µM in [8]; 31.5 µM in test [9]; 32 µM in test [1]; 32.4 µM in test [10]; 32.8 µM in test [2]; 34 µM in test [3]. Also, the TGI in test [4] was found to be 29.4 µM; in test [6] it was 33 µM; in test [7] it was 34.8 µM.
Turning to `O=c1c(OC/C(=N/O)c2ccccc2)c(-c2ccccc2)oc2ccccc12`, the GI50 in [8] is 10.6 µM; in [9] it was 17 µM; in test [1], 20.3 µM; in test [10], 16.8 µM; in [2], 9.2 µM; in test [3], 13.7 µM. Also, the values for the GI50 in test [4], in test [5] and in test [7] were 11.3 µM, 12.6 µM and 19.2 µM, respectively. Also, the TGI was 24.6 µM in [8]; over 50 µM in [9]; over 50 µM in test [1]; over 50 µM in [10]; 25.2 µM in test [2]; 34.3 µM in test [3]. Further, the TGI in test [4] was 27.5 µM; in [5], over 50 µM; in test [7] it was over 50 µM.
For the compound `O=C1C=C(c2cc(Br)c(O)c(Br)c2)/C(=C/c2cc(Br)c(O)c(Br)c2)O1`, the GI50 in [8] is 37.6 µM; in test [9] it was 30.4 µM; in [10], 39 µM; in [2] it was 16.8 µM; in test [3] it was 39.2 µM; in test [4], 24.1 µM. Besides, the results for the GI50 in test [6] and in test [7] were 41.5 µM and 19.2 µM, respectively. The TGI was over 75 µM in [8]; over 75 µM in [9]; over 75 µM in test [10]; 38.2 µM in test [2]; over 75 µM in test [3]; over 75 µM in test [4]. For the same compound, the TGI in test [6] and in test [7] was over 75 µM in each case.
With `CC(C)(C)N=CN1CCC(C(c2ccccc2)c2ccccc2)CC1`, the TGI in test [8] is over 100 µM; in [1], over 100 µM; in test [10], over 100 µM; in test [2], over 100 µM; in test [3], 56.5 µM; in test [4], over 100 µM. Also, the TGI in test [6] came out at 35.6 µM.
As to `Cc1c2ncccc2c(C)c2c1[nH]c1ccccc12`, the TGI in [8] amounted to 29 µM; in [9], 26.7 µM; in test [1], 24.1 µM; in [10], 22.6 µM; in test [2], 29.2 µM; in test [3] it was 25.7 µM. In addition, the TGI in test [4] came to 28.7 µM; in test [6], 30.6 µM.
